{
  "source": "patent US10253322B2",
  "about": "“Method for the production of transgenic plants” (MONSANTO TECHNOLOGY LLC, priority 2001, dated 2019)",
  "key": {"wheat mesocotyl explants [1]": {"test_system": "wheat mesocotyl explants", "experiment": "Multiple shoot production with cytokinins alone, wheat mesocotyl explants", "format": "cell-based", "conditions": "cytokinin 5 mg/L, 32 days after culture", "procedure": "A. Wheat mesocotyl explant: Mature wheat seeds were surface sterilized first in 70% ethanol for 1 min. and then soaked in 20% CLOROX® (5.25% sodium hypochlorite) and shaken at 250 rpm for 20 min. The seeds were then rinsed five times with sterile distilled water and then placed in 100×25 mm petri dishes containing a sterile piece of felt and ˜15 mL of double distilled sterile water with 5 μM BA for germination. The seeds were cultured for 1 day in darkness at ˜24° C. Mesocotyl sections about 2-3 mm in length were then excised by removing the upper portion of the coleoptile, approximately 1-1.5 mm in length, and root tissue around the crown region. These mesocotyl explants contain at least several different and distinct meristems, such as a scutellar node, a coleoptile node, a first leaf bud and possibly several leaf nodes, and an apical meristem. This mesocotyl explant thus comprises an apical meristem and several axillary meristems, including the scutellar node meristem. […] It is also important that the explants have all of the described meristems intact after excision, in order to maximize multiple bud response in culture.\nWheat explants such as mesocotyl sections from seedlings, mature embryos from mature seeds, and immature embryos from immature seeds were cultured on multiple shoot inducing media comprising combinations of cytokinins, auxins and abscisic acid (ABA). […] The particular media compositions used for this invention are described in detail in Table 1. The mesocotyl explants were placed on media with the acropetal end up, and mature and immature embryo explants were placed on media with the scutellum-side up. […]\nFor the first three weeks, the explants were usually trimmed, by removing the top portion of coleoptile 3-5 mm above the crown region for wheat, every 3 to 5 days to inhibit dominant growth.\nFour different cytokinins, not in combination with auxin, were tested for their ability to induce multiple shoot induction on wheat mesocotyl explants: BA, kinetin, zeatin and TDZ."}, "wheat mesocotyl explants [2]": {"test_system": "wheat mesocotyl explants", "experiment": "Multiple bud induction from primary meristems on multiple shoot inducing media, wheat mesocotyl explants", "format": "cell-based", "conditions": "4 weeks after culture initiation (Table 3)", "procedure": "A. Wheat mesocotyl explant: Mature wheat seeds were surface sterilized first in 70% ethanol for 1 min. and then soaked in 20% CLOROX® (5.25% sodium hypochlorite) and shaken at 250 rpm for 20 min. The seeds were then rinsed five times with sterile distilled water and then placed in 100×25 mm petri dishes containing a sterile piece of felt and ˜15 mL of double distilled sterile water with 5 μM BA for germination. The seeds were cultured for 1 day in darkness at ˜24° C. Mesocotyl sections about 2-3 mm in length were then excised by removing the upper portion of the coleoptile, approximately 1-1.5 mm in length, and root tissue around the crown region. These mesocotyl explants contain at least several different and distinct meristems, such as a scutellar node, a coleoptile node, a first leaf bud and possibly several leaf nodes, and an apical meristem. This mesocotyl explant thus comprises an apical meristem and several axillary meristems, including the scutellar node meristem. It is important when excising the mesocotyl explant to leave a whole piece of the scutellum attached to the explant, because the scutellar node meristem contributes a large primary meristem from which upwards of 100 buds can be produced via the method of the present invention, relative to the small primary meristems contributed by the other meristems from which a smaller number of buds can be produced. […]"}, "[3]": {"test_system": "shoots from Bobwhite mesocotyl explants", "experiment": "Root induction of elongated shoots", "format": "cell-based, wheat", "conditions": "IBA 1 mg/L", "procedure": "Usually three to five weeks after the induction stage culture described above, multiple bud clumps were divided and transferred to a shoot elongation medium, and cultured under 16 h photoperiod at about 25° C. for 3 to 4 weeks. The shoot elongation medium comprised MS basal medium supplemented with ascorbic acid at 100 mg/L, 2-[N-Morpholino]ethanesulfonic acid (MES) at 1.95 g/L, casein hydrolysate at 100 mg/L, maltose at 40 g/L, and Schweizer-Hall® gelling agent at 2 g/L. The elongated shoots were transferred to a rooting medium, comprising MS basal medium supplemented with IBA at 1 mg/L, ascorbic acid at 100 mg/L, 2-[N-Morpholino] ethanesulfonic acid (MES) at 1.95 g/L, casein hydrolysate at 100 mg/L, maltose at 40 g/L, and Schweizer-Hall® gelling agent at 2 g/L, for 3 to 4 weeks, after which sufficient roots had formed to transfer the shoots to soil.\nThree genotypes were tested to evaluate shoot elongation from the buds induced in the above described multiple shoot induction step. Bobwhite, 251BW012 and Autry525 were chosen as representative standard, good and poor lines respectively, based on a previous study of embryogenic regeneration capacity. The buds were removed from the media containing the growth regulator combination described in the induction stage, after about 3-5 weeks of culture. […]"}, "[4]": {"conditions": "(D) continuous dark first two weeks, then light 16/8 two weeks"}, "[5]": {"conditions": "(L) 16 h photoperiod for four weeks"}},
  "data": [
    {"smiles": "c1coc(CNc2ncnc3[nH]cnc23)c1", "note": "[Kinetin, kinetin]", "values": [
      {"measurement": "% of explants producing 2-5 shoots (each from a single primary meristem)", "setting": "wheat mesocotyl explants [1]; [4]", "value": 23.8, "unit": "%"},
      {"measurement": "% of explants producing multiple shoots from a single primary meristem", "setting": "wheat mesocotyl explants [1]; [4]", "value": 0, "unit": "%"},
      {"measurement": "% of explants producing 2-5 shoots (each from a single primary meristem)", "setting": "wheat mesocotyl explants [1]; [5]", "value": 20.0, "unit": "%"},
      {"measurement": "% of explants producing multiple shoots from a single primary meristem", "setting": "wheat mesocotyl explants [1]; [5]", "value": 0, "unit": "%"}
    ]},
    {"smiles": "O=C(Nc1ccccc1)Nc1cnns1", "note": "[TDZ, thidiazuron]", "values": [
      {"measurement": "% of explants producing 2-5 shoots (each from a single primary meristem)", "setting": "wheat mesocotyl explants [1]; [4]", "value": 76.2, "unit": "%"},
      {"measurement": "% of explants producing multiple shoots from a single primary meristem", "setting": "wheat mesocotyl explants [1]; [4]", "value": 0, "unit": "%"},
      {"measurement": "% of explants producing 2-5 shoots (each from a single primary meristem)", "setting": "wheat mesocotyl explants [1]; [5]", "value": 80.0, "unit": "%"},
      {"measurement": "% of explants producing multiple shoots from a single primary meristem", "setting": "wheat mesocotyl explants [1]; [5]", "value": 0, "unit": "%"},
      {"measurement": "% explants producing 20-80 buds/primary meristem", "setting": "wheat mesocotyl explants [2]", "value": 0, "unit": "%"},
      {"measurement": "No. primary meristems produced/explant", "setting": "wheat mesocotyl explants [2]", "value": "2-5"}
    ]},
    {"smiles": "C/C(=C\\CNc1ncnc2[nH]cnc12)CO", "note": "[Zeatin, zeatin]", "values": [
      {"measurement": "% of explants producing 2-5 shoots (each from a single primary meristem)", "setting": "wheat mesocotyl explants [1]; [4]", "value": 45.0, "unit": "%"},
      {"measurement": "% of explants producing multiple shoots from a single primary meristem", "setting": "wheat mesocotyl explants [1]; [4]", "value": 0, "unit": "%"},
      {"measurement": "% of explants producing 2-5 shoots (each from a single primary meristem)", "setting": "wheat mesocotyl explants [1]; [5]", "value": 20.0, "unit": "%"},
      {"measurement": "% of explants producing multiple shoots from a single primary meristem", "setting": "wheat mesocotyl explants [1]; [5]", "value": 0, "unit": "%"}
    ]},
    {"smiles": "O=C(O)CCCc1c[nH]c2ccccc12", "note": "[IBA, 3-indolebutyric acid]", "values": [
      {"measurement": "% shoots producing roots", "setting": "[3]", "value": "significantly increased the rooting response"}
    ]},
    {"smiles": "c1ccc(CNc2ncnc3nc[nH]c23)cc1", "note": "[BA, 6-benzylaminopurine]", "values": [
      {"measurement": "% of explants producing 2-5 shoots (each from a single primary meristem)", "setting": "wheat mesocotyl explants [1]; [4]", "value": 15.0, "unit": "%"},
      {"measurement": "% of explants producing multiple shoots from a single primary meristem", "setting": "wheat mesocotyl explants [1]; [4]", "value": 0, "unit": "%"},
      {"measurement": "% of explants producing 2-5 shoots (each from a single primary meristem)", "setting": "wheat mesocotyl explants [1]; [5]", "value": 10.0, "unit": "%"},
      {"measurement": "% of explants producing multiple shoots from a single primary meristem", "setting": "wheat mesocotyl explants [1]; [5]", "value": 0, "unit": "%"}
    ]}
  ]
}
